The target of one series is T1, human OAT1 (Homo sapiens, UniProt Q4U2R8).
T1 sequence (Q4U2R8 1-563): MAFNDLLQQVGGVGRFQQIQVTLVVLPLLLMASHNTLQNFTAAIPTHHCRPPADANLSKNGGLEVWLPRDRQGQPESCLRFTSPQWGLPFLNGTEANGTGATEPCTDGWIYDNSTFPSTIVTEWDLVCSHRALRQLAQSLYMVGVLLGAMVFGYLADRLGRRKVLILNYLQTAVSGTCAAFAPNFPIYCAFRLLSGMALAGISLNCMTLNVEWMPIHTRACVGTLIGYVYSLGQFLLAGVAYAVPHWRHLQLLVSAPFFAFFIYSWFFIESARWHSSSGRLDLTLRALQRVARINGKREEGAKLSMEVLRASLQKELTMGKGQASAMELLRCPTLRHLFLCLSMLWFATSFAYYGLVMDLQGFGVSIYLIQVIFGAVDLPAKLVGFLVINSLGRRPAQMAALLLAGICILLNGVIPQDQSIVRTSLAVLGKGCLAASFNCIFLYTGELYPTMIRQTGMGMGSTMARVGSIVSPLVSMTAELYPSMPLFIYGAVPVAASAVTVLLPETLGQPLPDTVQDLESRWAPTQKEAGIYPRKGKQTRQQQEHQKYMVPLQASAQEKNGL
Also noted: method as in Kang et al. (2021). The settings on record: ref Kang et al. (2021); cited from earlier work.

For another series, the target named is T2, human OCT3 (Homo sapiens, UniProt O75751).
T2 sequence (O75751 1-556): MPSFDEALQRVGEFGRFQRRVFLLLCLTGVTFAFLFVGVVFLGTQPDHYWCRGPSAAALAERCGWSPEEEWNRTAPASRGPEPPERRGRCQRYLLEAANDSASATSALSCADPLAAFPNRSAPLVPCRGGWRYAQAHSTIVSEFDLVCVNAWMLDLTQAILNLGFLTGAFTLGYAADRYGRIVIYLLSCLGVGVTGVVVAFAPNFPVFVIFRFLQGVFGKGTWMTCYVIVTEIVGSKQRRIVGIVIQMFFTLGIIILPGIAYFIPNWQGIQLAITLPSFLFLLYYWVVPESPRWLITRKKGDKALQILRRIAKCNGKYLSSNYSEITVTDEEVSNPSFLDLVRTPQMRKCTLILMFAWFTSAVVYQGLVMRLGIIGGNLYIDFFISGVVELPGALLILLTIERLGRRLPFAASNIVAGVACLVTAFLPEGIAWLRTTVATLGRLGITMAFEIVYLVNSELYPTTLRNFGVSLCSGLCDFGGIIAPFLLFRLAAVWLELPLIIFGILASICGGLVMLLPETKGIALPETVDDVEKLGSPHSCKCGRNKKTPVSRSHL

The target in another series is T3, rat Oct3 (Rattus norvegicus, UniProt O88446).
T3 sequence (O88446 1-551): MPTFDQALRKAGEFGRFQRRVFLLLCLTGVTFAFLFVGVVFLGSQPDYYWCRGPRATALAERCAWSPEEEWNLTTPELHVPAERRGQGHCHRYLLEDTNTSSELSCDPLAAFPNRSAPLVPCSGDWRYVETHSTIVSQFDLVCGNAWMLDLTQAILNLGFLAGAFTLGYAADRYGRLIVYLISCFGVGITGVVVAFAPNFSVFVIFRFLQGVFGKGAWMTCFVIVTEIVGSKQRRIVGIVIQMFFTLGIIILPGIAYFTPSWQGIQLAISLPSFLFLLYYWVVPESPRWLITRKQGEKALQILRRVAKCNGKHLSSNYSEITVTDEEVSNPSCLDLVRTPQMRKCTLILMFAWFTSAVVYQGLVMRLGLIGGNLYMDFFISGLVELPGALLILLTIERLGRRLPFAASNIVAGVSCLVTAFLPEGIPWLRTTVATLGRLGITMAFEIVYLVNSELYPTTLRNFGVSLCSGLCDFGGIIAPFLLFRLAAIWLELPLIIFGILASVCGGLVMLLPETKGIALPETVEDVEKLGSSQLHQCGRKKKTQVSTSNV

The test system of the next series is OATP1B1. Set-up: method as in Li et al., 2019. The settings on record: ref Li et al., 2019; read-out: half maximum inhibitory concentration (IC50) for OATP1B1; cited from earlier work.
Another series addresses T4, human OATP1B1 (Homo sapiens, UniProt Q9Y6L6).
T4 sequence (Q9Y6L6 1-691): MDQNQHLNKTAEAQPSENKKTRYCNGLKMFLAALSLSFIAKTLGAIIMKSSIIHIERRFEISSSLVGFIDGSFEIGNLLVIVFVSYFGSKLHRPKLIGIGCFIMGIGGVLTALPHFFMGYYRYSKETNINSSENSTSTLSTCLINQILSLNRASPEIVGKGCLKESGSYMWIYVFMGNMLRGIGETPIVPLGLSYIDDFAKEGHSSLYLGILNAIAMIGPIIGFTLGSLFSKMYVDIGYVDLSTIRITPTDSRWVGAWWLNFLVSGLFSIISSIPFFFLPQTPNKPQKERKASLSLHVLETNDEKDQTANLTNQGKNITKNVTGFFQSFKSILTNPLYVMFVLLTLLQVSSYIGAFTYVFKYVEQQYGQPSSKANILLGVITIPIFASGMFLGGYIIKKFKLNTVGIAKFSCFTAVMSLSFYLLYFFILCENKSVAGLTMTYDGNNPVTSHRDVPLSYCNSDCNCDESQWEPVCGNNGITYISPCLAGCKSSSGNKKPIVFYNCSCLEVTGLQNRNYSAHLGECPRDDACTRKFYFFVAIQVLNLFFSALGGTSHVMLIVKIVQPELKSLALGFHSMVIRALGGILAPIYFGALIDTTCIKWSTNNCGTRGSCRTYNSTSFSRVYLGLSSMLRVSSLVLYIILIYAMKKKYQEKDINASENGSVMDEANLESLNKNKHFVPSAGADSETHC
Also noted: method as in Cao et al. (2019). Conditions: ref Cao et al. (2019); cited from earlier work.

The text below walks through data of paper PMC9127186, “Molecular Basis Underlying Hepatobiliary and Renal Excretion of Phenolic Acids of Salvia miltiorrhiza Roots (Danshen)” (Frontiers in Pharmacology, 2022).

Consider `O=C(/C=C/c1ccc(O)c(O)c1)O[C@H](Cc1ccc(O)c(O)c1)C(=O)O` [Rosmarinic acid, rosmarinic acid], for which the “substrate of human OAT1” value at human OAT1 is on record as “substrate”.
In the case of `O=C(/C=C/c1ccc(O)c(O)c1/C=C/c1ccc(O)c(O)c1)O[C@H](Cc1ccc(O)c(O)c1)C(=O)O` [Salvianolic acid A, salvianolic acid A], the “TransportTC/TransportMC ratio (net transport ratio)” value at human OCT3 stood at 1.31 ± 0.09; on rat Oct3, 1.19 ± 0.14.
Turning to salvianolic acid B, the IC50 in the series with OATP1B1 is 38 µM. Further, on human OATP1B1, the “substrate of human OATP1B1” value is listed as “substrate”.
